Assay results from patent US9302999B2, “Substituted triazoles as herbicides” (E. I. DU PONT DE NEMOURS AND COMPANY, priority 2012, dated 2016).

Key:
Type in all cases: in vivo
[1] = tested on: deadnettle (henbit deadnettle, Lamium amplexicaule); experiment: Test C postemergence: deadnettle
Excerpt: At the same time, plants selected from these crop and weed species and also barley (winter barley, Hordeum vulgare), canarygrass (Phalaris minor), chickweed (common chickweed, Stellaria media) windgrass (Apera spica-venti) and deadnettle (henbit deadnettle, Lamium amplexicaule) were planted in pots containing Redi-Earth® planting medium (Scotts Company, 14111 Scottslawn Road, Marysville, Ohio 43041) comprising spaghnum peat moss, vermiculite, wetting agent and starter nutrients and treated with postemergence applications of test chemicals formulated in the same manner. Plants ranged in height from 2 to 18 cm (1- to 4-leaf stage) for postemergence treatments.
(§1) Treated plants and controls were maintained in a greenhouse for 13 to 15 days, after which time all species were compared to controls and visually evaluated. Plant response ratings, summarized in Table C, are based on a scale of 0 to 100 where 0 is no effect and 100 is complete control. A dash (-) response means no test result.

[2] = tested on: common (oilseed) sunflower (Helianthus annuus); experiment: Test C pre-/postemergence: sunflower; settings: Preemergence
How it was run: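 Visual injury scored 0–100 (100 = complete control) against untreated controls after 13–15 greenhouse days. Surfactant-containing solvent formulations applied either to soil after sowing (loam/sand) or over 1- to 4-leaf plants, 2–18 cm tall.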

[3] = tested on: ryegrass, Italian (Italian ryegrass, Lolium multiflorum); experiment: Test D pre-/postemergence: ryegrass, Italian
How it was run: (§2)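 Visual ratings from 0 (no effect) to 100 (complete control) were made 14–21 days after treatment, relative to controls. Applications were preemergence to seeds in silt loam, or postemergence to 2–18 cm (1–4 leaf) plants in peat-based medium. Compounds were formulated in a surfactant-containing non-phytotoxic solvent.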

[4] = tested on: barley, spring (spring barley, Hordeum vulgare); experiment: Test D pre-/postemergence: barley, spring
Excerpt: Seeds of plant species selected from bluegrass (annual bluegrass, Poa annua), blackgrass (Alopecurus myosuroides), canarygrass (Phalaris minor), chickweed (common chickweed, Stellaria media), galium (catchweed bedstraw, Galium aparine), bromegrass, downy (downy bromegrass, Bromus tectorum), field poppy (Papaver rhoeas), field violet (Viola arvensis), foxtail, green (green foxtail, Setaria viridis), deadnettle (henbit deadnettle, Lamium amplexicaule), ryegrass, Italian (Italian ryegrass, Lolium multiflorum), kochia (Kochia scoparia), lambsquarters (Chenopodium album), oilseed rape (Brassica napus), pigweed (Amaranthus retroflexus), Russian thistle (Salsola iberica), chamomile (scentless chamomile, Matricaria inodora), speedwell (bird's-eye speedwell, Veronica persica), barley, spring (spring barley, Hordeum vulgare), wheat, spring (spring wheat, Triticum aestivum), buckwheat, wild (wild buckwheat, Polygonum convolvulus), mustard, wild (wild mustard, Sinapis arvensis), oat, wild (wild oat, Avena fatua), radish, wild (wild radish, Raphanus raphanistrum), windgrass (Apera spica-venti), barley, winter (winter barley, Hordeum vulgare), and wheat, winter (winter wheat, Triticum aestivum) were planted into a silt loam soil and treated preemergence with test chemicals formulated in a non-phytotoxic solvent mixture which included a surfactant. At the same time, these same crop and weed species were planted in pots containing the planting medium comprising spaghnum peat moss, vermiculite, wetting agent and starter nutrients and treated with postemergence applications of the test chemicals formulated in the same manner. Plants ranged in height from 2 to 18 cm (1- to 4-leaf stage).
as §1, with “controlled growth environment” for “greenhouse”, “14” for “13”, “21 days” for “15 days,”, “D,” for “C,”

[5] = tested on: blackgrass (Alopecurus myosuroides); experiment: Test D pre-/postemergence: blackgrass
How it was run: as §2

[6] = tested on: lambsquarters (Chenopodium album); experiment: Test D pre-/postemergence: lambsquarters
How it was run: as §2

[7] = tested on: sedge, umbrella (small-flower umbrella sedge Cyperus difformis); experiment: Test B flooded paddy: sedge, umbrella; settings: Flood; 250 g ai/ha; applied to paddy water at 2-leaf stage; visually evaluated after 13 to 15 days
How it was run: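 Each compound is applied to the floodwater of pots holding 2-leaf seedlings, water standing 3 cm over the soil throughout. Plants stay in a greenhouse 13 to 15 days before visual scoring against controls from 0 (no effect) to 100 (complete control).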

[8] = 31 g ai/ha, scale 0 to 100 (0 no effect, 100 complete control)
[9] = 62 g ai/ha, scale 0 to 100 (0 no effect, 100 complete control)
[10] = 125 g ai/ha, scale 0 to 100, 0 no effect, 100 complete control
[11] = 31 g ai/ha, scale of 0 to 100, 0 is no effect, 100 is complete control
[12] = 62 g ai/ha, scale of 0 to 100, 0 is no effect, 100 is complete control
[13] = 250 g ai/ha, scale 0 to 100, 0 no effect, 100 complete control
[14] = Postemergence, 31 g ai/ha, scale 0 to 100 (0 no effect, 100 complete control)
[15] = Postemergence, 62 g ai/ha, scale 0 to 100 (0 no effect, 100 complete control)
[16] = Postemergence, 125 g ai/ha, scale 0 to 100, 0 no effect, 100 complete control
[17] = Postemergence, 250 g ai/ha, scale 0 to 100 (0 no effect, 100 complete control)
[18] = Postemergence, 16 g ai/ha, scale 0 to 100
[19] = Preemergence, 16 g ai/ha, scale 0 to 100 (0 no effect, 100 complete control)
[20] = Preemergence, 31 g ai/ha, scale 0 to 100 (0 no effect, 100 complete control)
[21] = Preemergence, 62 g ai/ha, scale 0 to 100
[22] = Preemergence, 125 g ai/ha, scale 0 to 100
[23] = Preemergence, 250 g ai/ha, scale 0 to 100
[24] = Postemergence, 8 g ai/ha, scale 0 to 100

## Cc1nn(-c2ccc(C(F)(F)F)cc2)nc1Cc1ccnc(C(F)(F)F)c1 [Compound 47, 4-[[5-methyl-2-[4-(trifluoromethyl)phenyl]-2H-1,2,3-triazol-4-yl]methyl]-2-(trifluoromethyl)pyridine]
[1]; [8]
  Plant response rating, Deadnettle: 95
[1]; [9]
  Plant response rating, Deadnettle: 100
[1]; [10]
  Plant response rating, Deadnettle: 100
[1]; 250 g ai/ha, scale 0 to 100
  Plant response rating, Deadnettle: 100
[2]; [11]
  Plant response rating, Sunflower: 0
[2]; [12]
  Plant response rating, Sunflower: 0
[2]; [10]
  Plant response rating, Sunflower: 0
[2]; [13]
  Plant response rating, Sunflower: 10

## Cc1nn(-c2ccc(F)cc2)nc1Oc1ccnc(C(F)(F)F)c1 [Compound 129, 4-[[2-(4-fluorophenyl)-5-methyl-2H-1,2,3-triazol-4-yl]oxy]-2-(trifluoromethyl)pyridine]
[1]; [8]
  Plant response rating, Deadnettle: 100
[1]; [9]
  Plant response rating, Deadnettle: 100
[1]; [10]
  Plant response rating, Deadnettle: 100
[1]; 250 g ai/ha, scale 0 to 100
  Plant response rating, Deadnettle: 100
[3]; [14]
  Plant response rating: Ryegrass, Italian: 5
[3]; [15]
  Plant response rating: Ryegrass, Italian: 5
[3]; [16]
  Plant response rating: Ryegrass, Italian: 10
[3]; [17]
  Plant response rating: Ryegrass, Italian: 15
[3]; [18]
  Plant response rating, Ryegrass, Italian: 5
[3]; [19]
  Plant response rating, Ryegrass, Italian: 0
[3]; [20]
  Plant response rating, Ryegrass, Italian: 5
[3]; [21]
  Plant response rating, Ryegrass, Italian: 10
[3]; [22]
  Plant response rating, Ryegrass, Italian: 70
[3]; [23]
  Plant response rating, Ryegrass, Italian: 90
[4]; [14]
  Plant response rating: Barley, Spring: 5
[4]; [15]
  Plant response rating: Barley, Spring: 5
[4]; [16]
  Plant response rating: Barley, Spring: 10
[4]; [17]
  Plant response rating: Barley, Spring: 10
[4]; [18]
  Plant response rating, Barley, Spring: 5
[4]; [19]
  Plant response rating, Barley, Spring: 0
[4]; [20]
  Plant response rating, Barley, Spring: 0
[4]; [21]
  Plant response rating, Barley, Spring: 5
[4]; [22]
  Plant response rating, Barley, Spring: 15
[4]; [23]
  Plant response rating, Barley, Spring: 20
[2]; [11]
  Plant response rating, Sunflower: 0
[2]; [12]
  Plant response rating, Sunflower: 0
[2]; [10]
  Plant response rating, Sunflower: 0
[2]; [13]
  Plant response rating, Sunflower: 0
[5]; [14]
  Plant response rating: Blackgrass: 10
[5]; [15]
  Plant response rating: Blackgrass: 10
[5]; [16]
  Plant response rating: Blackgrass: 50
[5]; [17]
  Plant response rating: Blackgrass: 70
[5]; [18]
  Plant response rating, Blackgrass: 5
[5]; [19]
  Plant response rating, Blackgrass: 0
[5]; [20]
  Plant response rating, Blackgrass: 0
[5]; [21]
  Plant response rating, Blackgrass: 30
[5]; [22]
  Plant response rating, Blackgrass: 100
[5]; [23]
  Plant response rating, Blackgrass: 100
[6]; [14]
  Plant response rating: Lambsquarters: 85
[6]; [15]
  Plant response rating: Lambsquarters: 95
[6]; [16]
  Plant response rating: Lambsquarters: 100
[6]; [17]
  Plant response rating: Lambsquarters: 100
[6]; [18]
  Plant response rating, Lambsquarters: 85
[6]; [19]
  Plant response rating, Lambsquarters: 0
[6]; [20]
  Plant response rating, Lambsquarters: 80
[6]; [21]
  Plant response rating, Lambsquarters: 90
[6]; [22]
  Plant response rating, Lambsquarters: 90
[6]; [23]
  Plant response rating, Lambsquarters: 100

## Fc1ccc(-n2nc(Cc3ccnc(C(F)(F)F)c3)c(OCC(F)(F)F)n2)cc1 [Compound 142]
[1]; [8]
  Plant response rating, Deadnettle: 100
[1]; [9]
  Plant response rating, Deadnettle: 100
[1]; [10]
  Plant response rating, Deadnettle: 100
[1]; 250 g ai/ha, scale 0 to 100
  Plant response rating, Deadnettle: 100
[2]; [11]
  Plant response rating, Sunflower: 15
[2]; [10]
  Plant response rating, Sunflower: 15
[2]; [13]
  Plant response rating, Sunflower: 25
[7]
  Plant response rating, Sedge, Umbrella (0 to 100 scale, 0 is no effect, 100 is complete control): 90

## Cc1nn(-c2ccc(F)c(F)c2)nc1Oc1ccnc(C(F)(F)F)c1 [Compound 145]
[1]; [8]
  Plant response rating, Deadnettle: 100
[1]; [9]
  Plant response rating, Deadnettle: 100
[1]; [10]
  Plant response rating, Deadnettle: 100
[1]; 250 g ai/ha, scale 0 to 100
  Plant response rating, Deadnettle: 100
[3]; [14]
  Plant response rating: Ryegrass, Italian: 10
[3]; [15]
  Plant response rating: Ryegrass, Italian: 15
[3]; [16]
  Plant response rating: Ryegrass, Italian: 30
[3]; [24]
  Plant response rating, Ryegrass, Italian: 0
[3]; [18]
  Plant response rating, Ryegrass, Italian: 0
[4]; [14]
  Plant response rating: Barley, Spring: 10
[4]; [15]
  Plant response rating: Barley, Spring: 15
[4]; [16]
  Plant response rating: Barley, Spring: 20
[4]; [24]
  Plant response rating, Barley, Spring: 5
[4]; [18]
  Plant response rating, Barley, Spring: 10
[2]; [11]
  Plant response rating, Sunflower: 0
[2]; [12]
  Plant response rating, Sunflower: 5
[2]; [10]
  Plant response rating, Sunflower: 20
[2]; [13]
  Plant response rating, Sunflower: 25
[7]
  Plant response rating, Sedge, Umbrella (0 to 100 scale, 0 is no effect, 100 is complete control): 85
[5]; [14]
  Plant response rating: Blackgrass: 20
[5]; [15]
  Plant response rating: Blackgrass: 25
[5]; [16]
  Plant response rating: Blackgrass: 30
[5]; [24]
  Plant response rating, Blackgrass: 5
[5]; [18]
  Plant response rating, Blackgrass: 20
[6]; [14]
  Plant response rating: Lambsquarters: 90
[6]; [15]
  Plant response rating: Lambsquarters: 100
[6]; [16]
  Plant response rating: Lambsquarters: 100
[6]; [24]
  Plant response rating, Lambsquarters: 10
[6]; [18]
  Plant response rating, Lambsquarters: 25
